Data: PubChem BioAssay AID246 (DTP/NCI, 2004)
Values joined by “and” are separate entries in the source; they are usually repeats but may differ in a detail not shown here. Equal entries are not always repeated. Inconclusive results and toxic doses are left out.

System: BDF1 mice, P1081 chloroleukemia ip, survival T/C
Assay: NCI In Vivo Anticancer Drug Screen. Data for tumor model P1081 Chloroleukemia (intraperitoneal) in B6D2F1 (BDF1) mice
Conditions: endpoint: mean survival time, higher = longer survival
Method: The antitumor activity of compounds was measured in mice bearing transplantable tumors. Survival or tumor size were measured and the results are expressed as the measurement made in the treated group (T) divided by the measurement made in the vehicle treated control group (C). The tumor model used in this assay is P1081 Chloroleukemia (intraperitoneal) in B6D2F1 (BDF1) mice

[1] = dose: 4.0 mg/kg/injection, schedule: Q01DX010 (ip), vehicle: saline
[2] = dose: 2.5 mg/kg/injection, schedule: Q01DX010 (ip), vehicle: saline
[3] = dose: 5.0 mg/kg/injection, schedule: Q01DX010 (ip), vehicle: saline
[4] = dose: 20.0 mg/kg/injection, schedule: Q01DX010 (ip), vehicle: saline
[5] = dose: 25.0 mg/kg/injection, schedule: Q01DX Z (ip), vehicle: carboxymethylcellulose (CMC)

For `C[C@]12C=CC(=O)C=C1CC[C@@H]1[C@@H]2C(=O)C[C@@]2(C)[C@H]1CC[C@]2(O)C(=O)CO`, the T/C (dose: 6.25 mg/kg/injection, schedule: Q01DX Z (sc), vehicle: steriod suspending solution) was 114 % of control, the T/C (dose: 12.5 mg/kg/injection, schedule: Q01DX010 (sc), vehicle: steriod suspending solution) was 93 % of control and 100 % of control and the T/C (dose: 12.5 mg/kg/injection, schedule: Q01DX Z (sc), vehicle: steriod suspending solution) was 111 % of control and 124 % of control. The T/C (dose: 25.0 mg/kg/injection, schedule: Q01DX010 (sc), vehicle: steriod suspending solution) was 112 % of control and 100 % of control and 101 % of control, the T/C (dose: 25.0 mg/kg/injection, schedule: Q01DX Z (sc), vehicle: steriod suspending solution) was 105 % of control and 117 % of control and the T/C (dose: 50.0 mg/kg/injection, schedule: Q01DX010 (sc), vehicle: steriod suspending solution) was 107 % of control and 95 % of control and 100 % of control. For the same compound, the T/C (dose: 50.0 mg/kg/injection, schedule: Q01DX Z (sc), vehicle: steriod suspending solution) was 105 % of control and 91 % of control, the T/C (dose: 100.0 mg/kg/injection, schedule: Q01DX010 (sc), vehicle: steriod suspending solution) was 112 % of control and 92 % of control and 93 % of control and the T/C (dose: 100.0 mg/kg/injection, schedule: Q01DX Z (sc), vehicle: steriod suspending solution) was 92 % of control and 102 % of control. The T/C (dose: 200.0 mg/kg/injection, schedule: Q01DX010 (sc), vehicle: steriod suspending solution) was 92 % of control and 93 % of control and the T/C (dose: 200.0 mg/kg/injection, schedule: Q01DX Z (sc), vehicle: steriod suspending solution) was 98 % of control.
In the case of `C=CC(CN1CC1)OC(C)=O` (centres undefined), the T/C (dose: 0.24 mg/kg/injection, schedule: Q01DX Z (ip), vehicle: carboxymethylcellulose (CMC)) is reported as 108 % of control, the T/C (dose: 0.47 mg/kg/injection, schedule: Q01DX Z (ip), vehicle: carboxymethylcellulose (CMC)) is reported as 116 % of control and the T/C (dose: 0.94 mg/kg/injection, schedule: Q01DX Z (ip), vehicle: carboxymethylcellulose (CMC)) is reported as 103 % of control. The T/C (dose: 3.75 mg/kg/injection, schedule: Q01DX Z (ip), vehicle: carboxymethylcellulose (CMC)) was 194 % of control, the T/C [1] was 150 % of control and the T/C (dose: 8.0 mg/kg/injection, schedule: Q01DX010 (ip), vehicle: saline) was 160 % of control. For the same compound, the T/C (dose: 16.0 mg/kg/injection, schedule: Q01DX010 (ip), vehicle: saline) was 170 % of control.
For `Cc1n[nH]c(=O)[nH]c1=O`, the T/C (dose: 200.0 mg/kg/injection, schedule: Q01DX Z (ip), vehicle: other) was 98 % of control, the T/C (dose: 400.0 mg/kg/injection, schedule: Q01DX Z (ip), vehicle: other) was 105 % of control and the T/C (dose: 800.0 mg/kg/injection, schedule: Q01DX Z (ip), vehicle: other) was 106 % of control and 96 % of control.
With `Nc1nc(F)nc2c1ncn2C1OC(CO)C(O)C1O` (centres undefined) the T/C (dose: 0.25 mg/kg/injection, schedule: Q01DX010 (ip), vehicle: saline) was 100 % of control, the T/C (dose: 0.5 mg/kg/injection, schedule: Q01DX010 (ip), vehicle: saline) was 94 % of control and the T/C (dose: 1.0 mg/kg/injection, schedule: Q01DX010 (ip), vehicle: saline) was 110 % of control and 100 % of control. For the same compound, the T/C (dose: 2.0 mg/kg/injection, schedule: Q01DX010 (ip), vehicle: saline) was 111 % of control and 105 % of control and the T/C [1] was 95 % of control.
For `S=P(N1CC1)(N1CC1)N1CC1`, the T/C (dose: 0.37 mg/kg/injection, schedule: Q01DX Z (ip), vehicle: saline) was 98 % of control, the T/C (dose: 0.75 mg/kg/injection, schedule: Q01DX Z (ip), vehicle: saline) was 96 % of control and the T/C (dose: 1.5 mg/kg/injection, schedule: Q01DX Z (ip), vehicle: saline) was 109 % of control.
`Oc1cc(CN(CCCl)CCCl)c(O)cc1CN(CCCl)CCCl` was tested, and the T/C (dose: 0.06 mg/kg/injection, schedule: Q01DX Z (sc), vehicle: steriod suspending solution) was 101 % of control, the T/C (dose: 0.12 mg/kg/injection, schedule: Q01DX Z (sc), vehicle: steriod suspending solution) was 109 % of control and the T/C (dose: 0.24 mg/kg/injection, schedule: Q01DX Z (sc), vehicle: steriod suspending solution) was 114 % of control. The T/C (dose: 0.49 mg/kg/injection, schedule: Q01DX Z (sc), vehicle: steriod suspending solution) was 172 % of control, the T/C (dose: 0.63 mg/kg/injection, schedule: Q01DX010 (ip), vehicle: saline) was 110 % of control and 100 % of control and the T/C (dose: 0.99 mg/kg/injection, schedule: Q01DX Z (sc), vehicle: steriod suspending solution) was 175 % of control. For the same compound, the T/C (dose: 1.25 mg/kg/injection, schedule: Q01DX010 (ip), vehicle: saline) was 120 % of control and 104 % of control, the T/C [2] was 122 % of control and the T/C (dose: 3.75 mg/kg/injection, schedule: Q01DX Z (sc), vehicle: steriod suspending solution) was 104 % of control. For the same compound, the T/C [3] was 115 % of control and 118 % of control and the T/C (dose: 7.5 mg/kg/injection, schedule: Q01DX Z (sc), vehicle: steriod suspending solution) was 110 % of control and 101 % of control.
With `N=C(N)SCc1c2ccccc2c(CSC(=N)N)c2ccccc12` the T/C [2] was 220 % of control, the T/C [3] was 183 % of control and 210 % of control and the T/C (dose: 10.0 mg/kg/injection, schedule: Q01DX010 (ip), vehicle: saline) was 155 % of control and 240 % of control. For the same compound, the T/C [4] was 172 % of control and 200 % of control and the T/C (dose: 40.0 mg/kg/injection, schedule: Q01DX010 (ip), vehicle: saline) was 122 % of control.
With `C[C@@H]1C[C@H]2CC[C@H](O2)[C@H](C)C(=O)O[C@@H](C)C[C@@H]2CC[C@@H](O2)[C@@H](C)C(=O)O[C@H](C)C[C@H]2CC[C@H](O2)[C@H](C)C(=O)O[C@@H](C)C[C@@H]2CC[C@@H](O2)[C@@H](C)C(=O)O1` the T/C [5] was 107 % of control, the T/C (dose: 50.0 mg/kg/injection, schedule: Q01DX Z (ip), vehicle: carboxymethylcellulose (CMC)) was 109 % of control and the T/C (dose: 100.0 mg/kg/injection, schedule: Q01DX Z (ip), vehicle: carboxymethylcellulose (CMC)) was 100 % of control. The T/C (dose: 200.0 mg/kg/injection, schedule: Q01DX Z (ip), vehicle: carboxymethylcellulose (CMC)) was 93 % of control.
For `Cn1cc(NC(=O)c2cc(NC(=O)CN=C(N)N)cn2C)cc1C(=O)NCCC(=N)N`, the T/C (dose: 6.3 mg/kg/injection, schedule: Q01DX Z (ip), vehicle: saline) was 102 % of control, the T/C (dose: 12.5 mg/kg/injection, schedule: Q01DX Z (ip), vehicle: saline) was 100 % of control and the T/C (dose: 25.0 mg/kg/injection, schedule: Q01DX Z (ip), vehicle: saline) was 92 % of control.
In the case of `CSc1ncnc2c1ncn2C1OC(CO)C(O)C1O` (centres undefined), the T/C (dose: 3.1 mg/kg/injection, schedule: Q01DX Z (ip), vehicle: carboxymethylcellulose (CMC)) is reported as 105 % of control and 92 % of control, the T/C (dose: 6.25 mg/kg/injection, schedule: Q01DX Z (ip), vehicle: carboxymethylcellulose (CMC)) is reported as 102 % of control and the T/C (dose: 12.5 mg/kg/injection, schedule: Q01DX Z (ip), vehicle: carboxymethylcellulose (CMC)) is reported as 105 % of control and 90 % of control. For the same compound, the T/C [5] was 105 % of control and 98 % of control.
For `C[C@H]1C(=O)O[C@@H]2CCN3CC=C(COC(=O)[C@](C)(O)[C@@]1(C)O)[C@H]23`, the T/C (dose: 3.13 mg/kg/injection, schedule: Q01DX010 (ip), vehicle: saline) was 115 % of control and 95 % of control, the T/C (dose: 6.25 mg/kg/injection, schedule: Q01DX010 (ip), vehicle: saline) was 100 % of control and the T/C (dose: 7.5 mg/kg/injection, schedule: Q01DX Z (ip), vehicle: carboxymethylcellulose (CMC)) was 106 % of control. The T/C (dose: 12.5 mg/kg/injection, schedule: Q01DX010 (ip), vehicle: saline) was 95 % of control, the T/C (dose: 15.0 mg/kg/injection, schedule: Q01DX Z (ip), vehicle: carboxymethylcellulose (CMC)) was 99 % of control and the T/C (dose: 25.0 mg/kg/injection, schedule: Q01DX010 (ip), vehicle: saline) was 120 % of control and 95 % of control. The T/C (dose: 30.0 mg/kg/injection, schedule: Q01DX Z (ip), vehicle: carboxymethylcellulose (CMC)) was 101 % of control, the T/C (dose: 60.0 mg/kg/injection, schedule: Q01DX Z (ip), vehicle: carboxymethylcellulose (CMC)) was 106 % of control and the T/C (dose: 120.0 mg/kg/injection, schedule: Q01DX Z (ip), vehicle: carboxymethylcellulose (CMC)) was 153 % of control. The T/C (dose: 240.0 mg/kg/injection, schedule: Q01DX Z (ip), vehicle: carboxymethylcellulose (CMC)) was 103 % of control.
With `CC[n+]1c(-c2ccccc2)c2cc(N)ccc2c2ccc(N)cc21` the T/C [2] was 165 % of control and 222 % of control, the T/C [3] was 190 % of control and 333 % of control and the T/C [4] was 100 % of control.
